Measurements as given in US11767316B2, “Non-fused thiophene derivatives and their uses” (ENYO PHARMA, priority 2018, dated 2023).
pIC50: −log10 of the molar value.

Test system: PRXF PC-3M
Experiment: Cytotoxicity, propidium iodide based monolayer assay, PRXF PC-3M
Format: cell-based
Details: Homo sapiens, 96 h; PRXF PC-3M (prostate adeno carcinoma), four days of treatment, T/C=50%; read-out: Absolute IC50
Experimental: The cytotoxicity was tested for compounds of the invention on five different cell-lines, namely LXFL 1121, MAXF 401, MMXF L-636, PRXF PC-3M and UXF 1138 which are respectively lung large cell carcinoma, breast adeno carcinoma, multiple myeloma, prostate adeno carcinoma and uterine sarcoma.
A working stock solution of the test compounds was prepared in DMSO at a concentration of 33 mM or 8.25 mM, and small aliquots were stored at −20° C. On each day of an experiment, a frozen aliquot of the working stock solution was thawed and stored at room temperature prior to and during treatment.
All liquid handling steps were performed using the Tecan Freedom EVO 200 platform. First, serial 2-fold dilutions of the 33 mM DMSO working stock solution were done in DMSO. […]
A modified propidium iodide (PI) based monolayer assay was used to assess the anti-cancer activity of the compounds. Briefly, cells were harvested from exponential phase cultures, counted and plated in 96 well flat-bottom microtiter plates at a cell density of 4,000 to 40,000 cells/well dependent on the cell line's growth rate. […] After an incubation period of 1-2 hours at room temperature, fluorescence (FU) was measured using the Enspire Multimode Plate Reader (excitation λ=530 nm, emission λ=620 nm) to quantify the amount of attached viable cells. […]

Question: `O=C(Nc1scc(C2CCc3ccccc3C2)c1C(=O)O)c1ccccc1` (stereo not shown) [#16] was tested. Which pIC50 did it give?
Answer: Its pIC50 is 6.31.
